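Interpolation was linear, between the two tested concentrations surrounding the appropriate level; five concentrations were tested over 48 hours in 96-well plates. TGI is the concentration that stops growth completely.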
Test system: EKVX NSCLC
Test: inhibition of tumour cell growth, NCI panel, 48 h

Question: How did the TGI turn out when `Cc1ccc(S(=O)(=O)N/N=C2/CCC3(O)CC2(C)CCC2[C@H]3CC2(C)C)cc1` (stereo partly drawn) was run?
Answer: > 100 µM

Question: Which TGI does the source give for `Cc1ccc(C(=O)Oc2ccccc2)cc1N=NN(C)C` here?
Answer: > 100 µM

Question: With `CC1=CCC(C(C)(C)NC(=O)c2ccccc2)C/C1=N/O` (stereo not drawn) as the molecule, how does the TGI read?
Answer: > 100 µM

Question: With `O=[N+]([O-])c1cccc2nccc(NCCN3CCOCC3)c12` as the molecule, how does the TGI read?
Answer: > 53.8 µM

Question: With `CCCCCCCCCCCCOCC1(COCCCCCCCCCCCC)COC(c2ccc(N)cc2)OC1` as the molecule, how does the TGI read?
Answer: > 100 µM

Question: For `CCSC1=N/C(=C\c2ccco2)C(=O)N1`, which TGI is on record?
Answer: > 100 µM

Question: For `CCOC(=O)CCC(NC(=O)c1ccc(NC(OC)c2nc3cc(C(F)(F)F)ccc3nc2-c2ccccc2)cc1)C(=O)OCC` (stereo not drawn), which TGI is on record?
Answer: 33.6 µM

Question: How did the TGI turn out when `CCCCOC/N=C(/N)NC#N` was run?
Answer: > 100 µM

Question: How did the TGI turn out when `COc1ccc2[nH]c3c(c2c1)[C@H]1CCC(C(C)(C)C)C[C@H]1[C@H]1C(=O)N(c2ccccc2)C(=O)[C@@H]31` (stereo partly drawn) was run?
Answer: > 100 µM

Question: `NC(=O)[N+](=CC(=S)Nc1ccccc1Cl)C(N)=O` was tested. Which TGI did it give?
Answer: > 100 µM

Test system: HCT-15 colon
Test: inhibition of tumour cell growth, NCI panel, 48 h

Question: `C=C1C(=O)O[C@H]2C1C[C@H](O)[C@@]1(C)OC1CC[C@@]1(C)O[C@H]21` (stereo partly drawn) was tested. Which TGI did it give?
Answer: 40.3 µM

Question: Which TGI does the source give for `CCOC(=O)C1=C(OC(OCC)C(CC)[Se]c2ccccc2)CCC1` (stereo not drawn) here?
Answer: 42.9 µM

Question: Which TGI does the source give for `Cc1ccc(-c2cc(-c3ccccc3)c(C#N)c(=O)[nH]2)cc1` here?
Answer: > 100 µM

Question: How did the TGI turn out when `O=[N+]([O-])c1ccc(-c2nn3c(C45CC6CC(CC(C6)C4)C5)nnc3s2)c(Cl)c1` was run?
Answer: > 100 µM

Question: With `O=[N+]([O-])c1cccc(Nc2nc(Cl)nc(Cl)n2)c1` as the molecule, how does the TGI read?
Answer: > 100 µM

Question: For `O=C1Oc2ccccc2C(=O)/C1=C/N1C(=O)CNC1=S`, which TGI is on record?
Answer: > 100 µM

Question: How did the TGI turn out when `CCOC(=O)C(=CNc1ccc(F)c(F)c1)C(=O)OCC` was run?
Answer: > 100 µM

Question: With `COc1ccc(-c2nc(-c3cnccn3)n(C3OC(CO)C(O)C3O)n2)cc1` (stereo not drawn) as the molecule, how does the TGI read?
Answer: > 10 µM

Question: How did the TGI turn out when `CCCc1nc2c(n1CC)C(=O)c1ccccc1C2=O` was run?
Answer: 98 µM

Question: For `C1CCCN(NC2=NCCO2)CC1`, which TGI is on record?
Answer: > 100 µM

Question: Which TGI does the source give for `O=C1NCN(c2ccccc2)C12CCN(CC1COc3ccccc3O1)CC2` (stereo not drawn) here?
Answer: > 100 µM

Question: With `O=C1OC([C@H](O)c2cccnc2)c2ccccc21` (stereo partly drawn) as the molecule, how does the TGI read?
Answer: > 10 µM

Question: For `CO/C(=N\N=C\c1ccc(Cl)c(Cl)c1)c1ccncc1`, which TGI is on record?
Answer: > 10 µM

Question: `COC(=O)/C=C(\C)CCC1SC1(C)C` (stereo not drawn) was tested. Which TGI did it give?
Answer: > 100 µM

Question: With `C=C1C2=C(CCCC2)C(=O)OC12CCCCC2` as the molecule, how does the TGI read?
Answer: > 100 µM

Question: With `COC(=O)C(=O)C(C(=O)C(=O)Nc1ccc(C)cc1C)c1nc2ccc(Cl)cc2[nH]c1=O` (stereo not drawn) as the molecule, how does the TGI read?
Answer: > 100 µM

Question: `Cc1ccc(S(=O)(=O)N/N=C2/CCC3(O)CC2(C)CCC2[C@H]3CC2(C)C)cc1` (stereo partly drawn) was tested. Which TGI did it give?
Answer: > 100 µM

Question: `Cc1ccc(C(=O)Oc2ccccc2)cc1N=NN(C)C` was tested. Which TGI did it give?
Answer: > 100 µM

Question: How did the TGI turn out when `CC1=CCC(C(C)(C)NC(=O)c2ccccc2)C/C1=N/O` (stereo not drawn) was run?
Answer: > 100 µM

Question: With `O=[N+]([O-])c1cccc2nccc(NCCN3CCOCC3)c12` as the molecule, how does the TGI read?
Answer: > 46.9 µM

Question: How did the TGI turn out when `CCCCCCCCCCCCOCC1(COCCCCCCCCCCCC)COC(c2ccc(N)cc2)OC1` was run?
Answer: > 100 µM

Question: Which TGI does the source give for `CCSC1=N/C(=C\c2ccco2)C(=O)N1` here?
Answer: > 100 µM

Question: How did the TGI turn out when `CCOC(=O)CCC(NC(=O)c1ccc(NC(OC)c2nc3cc(C(F)(F)F)ccc3nc2-c2ccccc2)cc1)C(=O)OCC` (stereo not drawn) was run?
Answer: 34 µM

Question: Which TGI does the source give for `CCCCOC/N=C(/N)NC#N` here?
Answer: 43.8 µM

Question: Which TGI does the source give for `COc1ccc2[nH]c3c(c2c1)[C@H]1CCC(C(C)(C)C)C[C@H]1[C@H]1C(=O)N(c2ccccc2)C(=O)[C@@H]31` (stereo partly drawn) here?
Answer: > 100 µM

Question: `NC(=O)[N+](=CC(=S)Nc1ccccc1Cl)C(N)=O` was tested. Which TGI did it give?
Answer: > 100 µM

Test system: KM12 colon
Test: inhibition of tumour cell growth, NCI panel, 48 h

Question: Which TGI does the source give for `C=C1C(=O)O[C@H]2C1C[C@H](O)[C@@]1(C)OC1CC[C@@]1(C)O[C@H]21` (stereo partly drawn) here?
Answer: 55.1 µM

Question: How did the TGI turn out when `CCOC(=O)C1=C(OC(OCC)C(CC)[Se]c2ccccc2)CCC1` (stereo not drawn) was run?
Answer: > 100 µM

Question: Which TGI does the source give for `CCCc1cc(OC(=O)c2c(O)cc(OC)cc2CCC)cc(O)c1C(=O)O` here?
Answer: > 100 µM

Question: Which TGI does the source give for `Cc1ccc(-c2cc(-c3ccccc3)c(C#N)c(=O)[nH]2)cc1` here?
Answer: > 100 µM

Question: `O=[N+]([O-])c1ccc(-c2nn3c(C45CC6CC(CC(C6)C4)C5)nnc3s2)c(Cl)c1` was tested. Which TGI did it give?
Answer: > 100 µM

Question: With `O=[N+]([O-])c1cccc(Nc2nc(Cl)nc(Cl)n2)c1` as the molecule, how does the TGI read?
Answer: > 100 µM

Question: How did the TGI turn out when `O=C1Oc2ccccc2C(=O)/C1=C/N1C(=O)CNC1=S` was run?
Answer: > 100 µM

Question: With `CCOC(=O)C(=CNc1ccc(F)c(F)c1)C(=O)OCC` as the molecule, how does the TGI read?
Answer: > 100 µM

Question: How did the TGI turn out when `COc1ccc(-c2nc(-c3cnccn3)n(C3OC(CO)C(O)C3O)n2)cc1` (stereo not drawn) was run?
Answer: > 10 µM

Question: With `CCCc1nc2c(n1CC)C(=O)c1ccccc1C2=O` as the molecule, how does the TGI read?
Answer: > 100 µM

Question: Which TGI does the source give for `C1CCCN(NC2=NCCO2)CC1` here?
Answer: > 100 µM

Question: For `O=C1OC([C@H](O)c2cccnc2)c2ccccc21` (stereo partly drawn), which TGI is on record?
Answer: > 10 µM

Question: Which TGI does the source give for `CO/C(=N\N=C\c1ccc(Cl)c(Cl)c1)c1ccncc1` here?
Answer: > 10 µM

Question: Which TGI does the source give for `COC(=O)/C=C(\C)CCC1SC1(C)C` (stereo not drawn) here?
Answer: > 100 µM

Question: Which TGI does the source give for `C=C1C2=C(CCCC2)C(=O)OC12CCCCC2` here?
Answer: > 100 µM

Question: For `COC(=O)C(=O)C(C(=O)C(=O)Nc1ccc(C)cc1C)c1nc2ccc(Cl)cc2[nH]c1=O` (stereo not drawn), which TGI is on record?
Answer: > 100 µM

Question: With `Cc1ccc(S(=O)(=O)N/N=C2/CCC3(O)CC2(C)CCC2[C@H]3CC2(C)C)cc1` (stereo partly drawn) as the molecule, how does the TGI read?
Answer: > 100 µM

Question: How did the TGI turn out when `Cc1ccc(C(=O)Oc2ccccc2)cc1N=NN(C)C` was run?
Answer: > 100 µM

Question: Which TGI does the source give for `CC1=CCC(C(C)(C)NC(=O)c2ccccc2)C/C1=N/O` (stereo not drawn) here?
Answer: > 100 µM

Question: `O=[N+]([O-])c1cccc2nccc(NCCN3CCOCC3)c12` was tested. Which TGI did it give?
Answer: 40 µM

Question: For `CCCCCCCCCCCCOCC1(COCCCCCCCCCCCC)COC(c2ccc(N)cc2)OC1`, which TGI is on record?
Answer: > 100 µM

Question: Which TGI does the source give for `CCSC1=N/C(=C\c2ccco2)C(=O)N1` here?
Answer: > 100 µM
